The source of these data is ChEMBL document CHEMBL1157539, “Thousands of chemical starting points for antimalarial lead identification” (Nature, 2010).

This assay has as its system Plasmodium falciparum. The assay is described as follows: GSK_TCMDC: Inhibition of Plasmodium falciparum 3D7 in whole erythrocytes, using parasite LDH activity as an index of growth. The format is functional, organism-based. Particulars: Plasmodium falciparum, 3D7.

On to `Cc1ccccc1Cc1cccc(/N=C(\N)Nc2ccc(Cl)cc2)n1`, for which the XC50 came out at 676 nM.
In the case of `O=C(Nc1ccc(F)c(C(F)(F)F)c1)N[C@H]1CCN(CCCCCNC(=O)C2CC2c2ccc(Cl)c(Cl)c2)C1` (some centres not stated), the XC50 stood at 157 nM.
The molecule `CS(=O)(=O)N1CC2(CCN(CCC(NC(=O)NCc3ccc(Cl)c(Cl)c3)c3ccc(Cl)c(Cl)c3)CC2)c2ccccc21` (configuration not stated) displayed an XC50 of 799 nM.
`Cc1[nH]c2ccc(NS(C)(=O)=O)cc2c1C1CCN(CCC2CCN(C(=O)/C=C/c3ccc(Cl)c(Cl)c3)CC2)CC1`: the XC50 came out at 844 nM.
`Cn1nc(-c2ccc(NC(=O)Nc3cc(C(F)(F)F)ccc3F)cc2)c2cnc(NCCCCN3CCCC3)nc21` had an XC50 of 531 nM.
For `CCn1c(Sc2ccc([N+](=O)[O-])c(C#N)c2)nnc1-c1cccc(Cl)c1`, the XC50 came to 873 nM.
Turning to `COc1ccc2c(=NN=Cc3ccccc3F)cc(C)[nH]c2c1`, the XC50 came to 997 nM.
Under `Cc1cc2c3c(N)nc(N)nc3ccc2n1C` stands 90.1 nM; under `COc1cccc(NC(=O)c2ccc(NCCCN3CC(C)CC(C)C3)c([N+](=O)[O-])c2)c1` (configuration not stated), 721 nM; under `CCc1ccc(CN2CCC(NC(=O)c3ccc(-c4ccc(N(C)C)cc4)s3)CC2)cc1`, 1210 nM.
Consider `CCCCCCN(C(=O)OCc1ccccc1)C1CCN(C(=O)OC(C)(C)C)CC1C(=O)OCC` (configuration not stated), for which the XC50 turned out to be 366 nM.
For `Cc1ccc2c(N/N=C/c3cccc([N+](=O)[O-])c3)cc(C)nc2c1`, the XC50 worked out at 272 nM.
Under `Cc1cc(Nc2ccc(Cl)c(Cl)c2)n2nc(C)nc2n1` stands 258 nM; under `C[C@H](NC(=O)[C@H](CCCCNC(=O)OC(C)(C)C)NC(=O)OC(C)(C)c1ccc(-c2ccccc2)cc1)C(=O)OCc1ccccc1`, 181 nM; under `O=C1CCCN1CCCNCc1cccc(-c2ccc(-c3nc4ccccc4[nH]3)s2)c1`, 859 nM.
For the molecule `Nn1c(=O)oc2ccc(Cl)cc2c1=O`, the XC50 was found to be 187 nM.
In the case of `O=S(=O)(c1cc(Cl)c(Cl)cc1Cl)N1CCCCC(c2ccc(C(F)(F)F)cc2)=N1`, the XC50 came out at 205 nM.
Molecule `COc1ccc(NC(=O)[C@H](Cc2ccccc2)Nc2cc(C)nc(NCCc3cccs3)n2)cc1` yielded an XC50 of 749 nM.
The same measure for `O=S(=O)(NCCN1CCCC1)c1ccc(-c2ccc(CN3Cc4ccccc4C3)cc2)s1`: 930 nM.
In turn, `CCCc1ccc(-c2csc(NC(=O)c3ccc([N+](=O)[O-])o3)n2)cc1` registered an XC50 of 1210 nM.
In turn, `CCCCCN1CCCN(Cc2cccc(NC(=O)c3ccc(Cl)c(Cl)c3)c2)CC1` displayed an XC50 of 927 nM.
In turn, `NC1=NC(CCc2ccccc2)N(c2ccc(Cl)cc2)C(N)=N1` (configuration not stated) registered an XC50 of 38 nM.
Molecule `CC1CN(Cc2ccccc2)CCN1c1ccc(NC(=O)c2ccc(F)cc2)cc1` (configuration not stated) showed an XC50 of 1010 nM.
`CCOC(=O)CCCN1C(=O)CN=C(c2ccccc2)c2cc(Cl)ccc21` registered an XC50 of 778 nM.
`Cc1cc(Nc2cccc(C(F)(F)F)c2)nc2ccc(NC(=O)c3ccc(=O)[nH]c3)cc12` displayed an XC50 of 487 nM.
`Cc1ccc(CN2CCC(Oc3cccc(NC(=O)c4ccc(C(F)(F)F)cc4)c3)CC2)cc1` came in with an XC50 of 1020 nM.
As for `CSc1ccc(CN2CCC(NC(=O)c3ccc(-c4cccc(Cl)c4)s3)CC2)cc1`, the XC50 came to 1290 nM.
Under `Cc1cc(C(=O)CN2C(=O)NC3(CCOc4ccccc43)C2=O)c(C)n1Cc1ccco1` (configuration not stated) stands 605 nM; under `CC(C)N1CCN(C(=O)c2ccc(CNCCCN3CCN(c4cccc(Cl)c4Cl)CC3)o2)CC1`, 737 nM.
`COc1cccc(-c2cnc(-c3ccncc3)nc2C2CCN(Cc3ccc(NC(C)=O)cc3)CC2)c1` came in with an XC50 of 1500 nM.
The same measure for `CCCCC/C=C/C(=O)NC1CCC(CN2CCC(c3c[nH]c4ccccc34)CC2)CC1` (configuration not stated): 982 nM.
For `Cc1c(Cc2ccccc2)c(=O)oc2c(C)c3c(cc12)CN(CC(C)c1ccccc1)CO3` (configuration not stated), the XC50 was found to be 454 nM.
Regarding `Cc1cccc2nc(-c3ccc(-c4cccc(CN5CCCC5CN)c4)cc3)[nH]c12` (configuration not stated), the XC50 is 914 nM.
`O=C(/C=C/c1ccc(Cl)c(Cl)c1)NCCCCCCN1CCCN(C(=O)Nc2cccc(C(F)(F)F)c2)CC1` returned an XC50 of 793 nM.
`CN1CCN(c2ccc3[nH]c(-c4ccc5[nH]c(-c6ccc(O)cc6)nc5c4)nc3c2)CC1` registered an XC50 of 121 nM.
`CCN(CC)S(=O)(=O)c1cc(-c2ccc(=O)n(CC(=O)c3ccc(C)cc3)n2)ccc1C`: the XC50 amounted to 895 nM.
In turn, `COc1ccc(O)c(C(=O)c2cc(C(=O)NC3CCCCC3)c(=O)n(C3CCCCC3)c2)c1` registered an XC50 of 664 nM.
`C=CCN(c1nc(NC)nc(NCc2c(OC)cccc2OC)n1)C1CCCC1` came in with an XC50 of 1460 nM.
In turn, `CC(=NNC(S)=Nc1ccccc1Cl)c1ccccn1` came in with an XC50 of 80.3 nM.
`O=C1CCCC1Sc1nc2ccccc2c(=O)n1-c1ccc(Cl)c(Cl)c1` (configuration not stated) registered an XC50 of 726 nM.
In turn, `CC(=O)Nc1nc(C(=O)Nc2cccc(-c3ccc(-c4nc5cc(F)ccc5[nH]4)cc3)c2)cs1` yielded an XC50 of 288 nM.
In the case of `CN(C)c1ccc(CN2CCCCC(NC(=O)c3cc(-c4ccccc4Cl)cs3)C2)cc1` (configuration not stated), the XC50 was 1060 nM.
As to `O=C(/C=C/c1cccc(Br)c1)NCCCCCN1CCC(c2c[nH]c3ccccc23)CC1`, the XC50 came to 634 nM.
Molecule `CCN(CC)CCN1C(=O)C(O)(c2ccccc2Cl)c2c1cc(C(N)=O)cc2C(F)(F)F` (configuration not stated) returned an XC50 of 703 nM.
Take `Cc1cc(N)c2cc(NC(=O)/C=C/c3ccc([N+](=O)[O-])cc3)ccc2n1`: the XC50 amounted to 669 nM.
On to `O=C(Nc1cccc(CN2CCCN(CC3CCCCC3)CC2)c1)c1cc2ccccc2s1`, for which the XC50 came out at 814 nM.
Under `N=C(N)NC(=O)Nc1cc(F)c(Cl)c(Br)c1` stands 993 nM.
Under `CC(C(=O)NC1CCN(c2ccnc(Nc3ccc(F)cc3)n2)C1)c1ccc(Cl)cc1` (configuration not stated) stands 860 nM.
The same measure for `O=C1C(c2ccccc2)=C(Nc2ccc([N+](=O)[O-])cc2)c2ccccc21`: 871 nM; for `CN(C)CCNC(=O)N1CCCN(c2ncnc3cc(-c4ccccc4)sc23)CC1`: 786 nM.
As to `Cc1ncc([N+](=O)[O-])n1CCOC(=O)NC(NCC1COc2ccccc2O1)C(Cl)(Cl)Cl` (configuration not stated), the XC50 worked out at 223 nM.
For the molecule `Cc1ccc(O)c(Nc2c3c(c(C#N)c4nc5ccccc5n24)CCC3)c1`, the XC50 was found to be 1250 nM.
Molecule `COc1cc(Cl)c(C)cc1-n1cc(C(=O)c2cc(Br)ccc2O)cc(C#N)c1=O` registered an XC50 of 874 nM.
Take `CCOCc1cn(CC(=O)c2ccc(-c3ccccc3)cc2)c(C)nc1=N`: the XC50 is 319 nM.
As to `Cc1cc(C)c(NC(=O)N[C@H]2CCN(CCCCCNC(=O)/C=C/c3ccc(Cl)c(Cl)c3)C2)c(C)c1`, the XC50 worked out at 950 nM.
`O=C(N[C@H]1CCN(Cc2ccc(OCCCN3CCCCC3)cc2)C1)c1ccc(Cl)c(Cl)c1` showed an XC50 of 781 nM.
Turning to `Cn1c(NC(=O)C2CCC(CNC(=O)c3ccc(O)c(-c4cccc([N+](=O)[O-])c4)c3)CC2)nc2ccccc21` (configuration not stated), the XC50 is 982 nM.
Under `NCc1cccc(-c2ccccc2CNC2CCN(Cc3ccccc3)CC2)c1` stands 770 nM; under `O=C(Nc1cccc(CN2CCCN(Cc3ccc(O)cc3)CC2)c1)c1cc2ccccc2s1`, 362 nM; under `COc1ccc(S(=O)(=O)N(CCCN2CCN(C)CC2)Cc2csc(-c3ccc(CNCc4ccccc4)cc3)n2)cc1`, 949 nM.
Regarding `Cc1ccc(Nc2nccc(N(C)c3ccc4c(c3)nc(NC(=O)Cc3ccc(Cl)c(Cl)c3)n4C)n2)cc1S(N)(=O)=O`, the XC50 stood at 1110 nM.
Consider `COc1ccc(/C=C/C(=O)Nc2ccc(-c3ccncc3)cc2)cc1CCCN(C)C`, for which the XC50 was determined as 753 nM.
